Test results reported in patent publication US8404708B2, “Dual NK1/NK3 receptor antagonists” (Hoffmann-La Roche Inc., priority 2004, dated 2013).
pKi: −log10 of the molar value. Like-named read-outs stand apart in the source and are kept apart here.

Tests used:
[1] = biological target: human NK1 receptor (Homo sapiens, UniProt P25103); assay: NK1 receptor binding, [3H]substance P displacement, CHO cell membranes; settings: for pKi: first value of the cell pKi NK1/NK3, human NK1 receptor, [3H]substance P; for Ki: first value of the cell NK1/NK3, read-out: pKi NK1 (converted)
Chain of human NK1 receptor (P25103 whole entry): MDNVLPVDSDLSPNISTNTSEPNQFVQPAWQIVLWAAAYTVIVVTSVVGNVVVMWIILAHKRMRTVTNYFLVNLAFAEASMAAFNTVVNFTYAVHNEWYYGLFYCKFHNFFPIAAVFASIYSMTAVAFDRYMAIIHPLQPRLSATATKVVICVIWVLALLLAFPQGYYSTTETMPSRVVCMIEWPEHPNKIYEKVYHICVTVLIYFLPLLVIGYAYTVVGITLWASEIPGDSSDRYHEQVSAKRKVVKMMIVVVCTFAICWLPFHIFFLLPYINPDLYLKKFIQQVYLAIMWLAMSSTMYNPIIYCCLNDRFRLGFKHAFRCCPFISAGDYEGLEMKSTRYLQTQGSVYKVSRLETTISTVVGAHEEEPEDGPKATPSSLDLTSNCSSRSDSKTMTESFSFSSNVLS

[2] = biological target: T1, Recombinant human NK3 (hNK3) receptor (Homo sapiens, UniProt P29371); assay: NK3 receptor binding, [3H]SR142801 displacement, membrane preparations; settings: for pKi: second value of the cell pKi NK1/NK3, hNK3 receptor, [3H]SR142801; for Ki: second value of the cell NK1/NK3, read-out: pKi NK3 (converted)
T1 construct: expressed in transfected cells
T1 sequence (P29371 1-465): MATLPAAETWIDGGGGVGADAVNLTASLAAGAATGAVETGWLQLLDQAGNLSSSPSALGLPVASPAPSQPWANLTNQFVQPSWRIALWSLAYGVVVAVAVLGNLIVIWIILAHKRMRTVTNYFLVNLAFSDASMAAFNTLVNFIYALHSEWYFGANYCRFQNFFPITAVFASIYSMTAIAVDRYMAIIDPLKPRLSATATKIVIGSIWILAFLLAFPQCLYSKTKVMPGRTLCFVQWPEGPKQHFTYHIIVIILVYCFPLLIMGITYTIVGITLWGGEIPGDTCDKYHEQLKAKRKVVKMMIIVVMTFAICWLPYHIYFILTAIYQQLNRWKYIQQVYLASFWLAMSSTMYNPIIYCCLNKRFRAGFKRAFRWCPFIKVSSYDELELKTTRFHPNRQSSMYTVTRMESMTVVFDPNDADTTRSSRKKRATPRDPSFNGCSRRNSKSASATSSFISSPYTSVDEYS
Summary of the method: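 Buffer: Tris-HCl 50 mM pH 7.4, BSA 0.1%, MnCl2 4 mM, phosphoramidon 1 μM. ~2.5 μg membrane/well, 90 min RT. NSB with SB222200 (10 μM). Vacuum filtration over 0.3% PEI-treated GF/C, cold Tris/BSA washes, scintillation count; duplicates, ≥2 experiments.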

| Structure (SMILES) | pKi [1] | pKi [2] | Ki [1] [nM] | Ki [2] [nM] |
| --- | --- | --- | --- | --- |
| Cc1cc(F)ccc1-c1cc(N2CCC(=O)C2)ncc1N(C)C(=O)C(C)(C)c1cc(C(F)(F)F)cc(C(F)(F)F)c1 [Example 111, 2-(3,5-Bis-trifluoromethyl-phenyl)-N-[4-(4-fluoro-2-methyl-phenyl)-6-(3-oxo-pyrrolidin-1-yl)-pyridin-3-yl]-N-methyl-isobutyramide] | 8.68 | 8.39 |  |  |
| CN(C(=O)C(C)(C)c1cc(C(F)(F)F)cc(C(F)(F)F)c1)c1cnc(N2CC[C@H](O)[C@H](O)C2)cc1-c1ccccc1Cl (racemic) [Example 187, (3RS,4SR)-2-(3,5-Bis-trifluoromethyl-phenyl)-N-[4′-(2-chloro-phenyl)-3,4-dihydroxy-3,4,5,6-tetrahydro-2H-[1,2′]bipyridinyl-5′-yl]-N-methyl-isobutyramide] | 8.78 | 7.59 |  |  |
| COc1cc(Cl)cc(C(C)(C)C(=O)N(C)c2cnc(N3CCC[C@H]3CO)cc2-c2ccc(F)cc2C)c1 [Example 30, (S)-2-(3-Chloro-5-methoxy-phenyl)-N-[4-(4-fluoro-2-methyl-phenyl)-6-(2-hydroxymethyl-pyrrolidin-1-yl)-pyridin-3-yl]-N-methyl-isobutyramide] | 8.43 | 8.45 |  |  |
| Cc1cc(F)ccc1-c1cc(N2CC[C@H](O)[C@H]2CO)ncc1N(C)C(=O)C(C)(C)c1cc(C(F)(F)F)cc(C(F)(F)F)c1 [Example 155, (2R,3S)-2-(3,5-Bis-trifluoromethyl-phenyl)-N-[4-(4-fluoro-2-methyl-phenyl)-6-(3-hydroxy-2-hydroxymethyl-pyrrolidin-1-yl)-pyridin-3-yl]-N-methyl-isobutyramide] | 8.76 | 9.06 |  |  |
| CC(O)CNc1cc(-c2ccccc2Cl)c(N(C)C(=O)C(C)(C)c2cc(C(F)(F)F)cc(C(F)(F)F)c2)cn1 (racemic) [Example 74, (RS)-2-(3,5-Bis-trifluoromethyl-phenyl)-N-[4-(2-chloro-phenyl)-6-(2-hydroxy-propylamino)-pyridin-3-yl]-N-methyl-isobutyramide] | 9.06 | 8.24 |  |  |
| CN(C(=O)C(C)(C)c1cc(C(F)(F)F)cc(C(F)(F)F)c1)c1cnc(N2C[C@H](O)C[C@H]2CO)cc1-c1ccc(Cl)cc1 [Example 203, (2S,4R)-2-(3,5-Bis-trifluoromethyl-phenyl)-N-[4-(4-chloro-phenyl)-6-(4-hydroxy-2-hydroxymethyl-pyrrolidin-1-yl)-pyridin-3-yl]-N-methyl-isobutyramide] | 8.69 | 7.98 |  |  |
| Cc1ccccc1-c1cc(N2C[C@H](O)C[C@H]2CO)ncc1N(C)C(=O)C(C)(C)c1cc(Cl)cc(Cl)c1 [Example 12, (2S,4R)-2-(3,5-Dichloro-phenyl)-N-[6-(4-hydroxy-2-hydroxymethyl-pyrrolidin-1-yl)-4-o-tolyl-pyridin-3-yl]-N-methyl-isobutyramide] | 8.95 | 8.86 |  |  |
| CN(C(=O)C(C)(C)c1cc(C(F)(F)F)cc(C(F)(F)F)c1)c1cnc(N2C[C@@H](O)C[C@H]2CO)cc1-c1ccc(F)cc1CO [Example 240, (2S,4S)-2-(3,5-Bis-trifluoromethyl-phenyl)-N-[4-(4-fluoro-2-hydroxymethyl-phenyl)-6-(4-hydroxy-2-hydroxymethyl-pyrrolidin-1-yl)-pyridin-3-yl]-N-methyl-isobutyramide] |  |  | 0.794 | 3.02 |
| CN(C(=O)C(C)(C)c1cc(C(F)(F)F)cc(C(F)(F)F)c1)c1cnc(N2CC[C@H](O)[C@H]2CO)cc1-c1ccc(F)cc1 [Example 266, (2R,3S)-2-(3,5-Bis-trifluoromethyl-phenyl)-N-[4-(4-fluoro-phenyl)-6-(3-hydroxy-2-hydroxymethyl-pyrrolidin-1-yl)-pyridin-3-yl]-N-methyl-isobutyramide] |  |  | 1.2 | 3.8 |
| CN(C(=O)C(C)(C)c1cc(C(F)(F)F)cc(C(F)(F)F)c1)c1cnc(N2CC[C@H](N(C)C)C2)cc1-c1ccccc1Cl [Example 65, (S)-2-(3,5-Bis-trifluoromethyl-phenyl)-N-[4-(2-chloro-phenyl)-6-(3-dimethylamino-pyrrolidin-1-yl)-pyridin-3-yl]-N-methyl-isobutyramide] | 8.94 | 8.56 |  |  |
| Cc1ccccc1-c1cc(NC[C@H](O)CO)ncc1N(C)C(=O)C(C)(C)c1cc(C(F)(F)F)cc(C(F)(F)F)c1 [Example 122, (S)-2-(3,5-Bis-trifluoromethyl-phenyl)-N-[6-(2,3-dihydroxy-propylamino)-4-o-tolyl-pyridin-3-yl]-N-methyl-isobutyramide] | 8.72 | 7.71 |  |  |
| CN(C(=O)C(C)(C)c1cc(F)cc(C(F)(F)F)c1)c1cnc(N2C[C@H](O)C[C@H]2CO)cc1-c1ccccc1Cl [Example 5, (2S,4R)-N-[4-(2-Chloro-phenyl)-6-(4-hydroxy-2-hydroxymethyl-pyrrolidin-1-yl)-pyridin-3-yl]-2-(3-fluoro-5-trifluoromethyl-phenyl)-N-methyl-isobutyramide] | 8.81 | 8.76 |  |  |
| CN(C(=O)C(C)(C)c1cc(C(F)(F)F)cc(C(F)(F)F)c1)c1cnc(N2CCC[C@@H]2CO)cc1-c1ccccc1Cl [Example 41, (R)-2-(3,5-Bis-trifluoromethyl-phenyl)-N-[4-(2-chloro-phenyl)-6-(2-hydroxymethyl-pyrrolidin-1-yl)-pyridin-3-yl]-N-methyl-isobutyramide] | 8.97 | 8.12 |  |  |
| Cc1ccccc1-c1cc(N(CC(C)O)CC(C)O)ncc1N(C)C(=O)C(C)(C)c1cc(C(F)(F)F)cc(C(F)(F)F)c1 (centres unmarked) [Example 121, N-{6-[Bis-(2-hydroxy-propyl)-amino]-4-o-tolyl-pyridin-3-yl}-2-(3,5-bis-trifluoromethyl-phenyl)-N-methyl-isobutyramide] | 8.54 | 7.96 |  |  |
| CN(C(=O)C(C)(C)c1cc(Cl)cc(Cl)c1)c1cnc(NCCO)cc1-c1ccccc1Cl [Example 1, N-[4-(2-Chloro-phenyl)-6-(2-hydroxy-ethylamino)-pyridin-3-yl]-2-(3,5-dichloro-phenyl)-N-methyl-isobutyramide] | 8.56 | 8.05 |  |  |
| CN(C(=O)C(C)(C)c1cc(C(F)(F)F)cc(C(F)(F)F)c1)c1cnc(N(CCO)CCO)cc1-c1ccc(Cl)cc1Cl [Example 86, N-[6-[Bis-(2-hydroxy-ethyl)-amino]-4-(2,4-dichloro-phenyl)-pyridin-3-yl]-2-(3,5-bis-trifluoromethyl-phenyl)-N-methyl-isobutyramide] | 8.78 | 8.45 |  |  |
| CN(C(=O)C(C)(C)c1cc(C(F)(F)F)cc(C(F)(F)F)c1)c1cnc(N2CCC[C@H]2CO)cc1-c1ccc(Cl)cc1 [Example 287, (S)-2-(3,5-Bis-trifluoromethyl-phenyl)-N-[4-(4-chloro-phenyl)-6-(2-hydroxymethyl-pyrrolidin-1-yl)-pyridin-3-yl]-N-methyl-isobutyramide] |  |  | 6.31 | 7.41 |
| CN(C(=O)C(C)(C)c1cc(C(F)(F)F)cc(C(F)(F)F)c1)c1cnc(N[C@H]2CCC[C@@H]2O)cc1-c1ccccc1Cl [Example 153, (1S,2S)-2-(3,5-Bis-trifluoromethyl-phenyl)-N-[4-(2-chloro-phenyl)-6-(2-hydroxy-cyclopentylamino)-pyridin-3-yl]-N-methyl-isobutyramide] | 9.31 | 8.39 |  |  |
| Cc1ccccc1-c1cc(N2CC(O)C2)ncc1N(C)C(=O)C(C)(C)c1cc(C(F)(F)F)cc(C(F)(F)F)c1 [Example 163, 2-(3,5-Bis-trifluoromethyl-phenyl)-N-[6-(3-hydroxy-azetidin-1-yl)-4-o-tolyl-pyridin-3-yl]-N-methyl-isobutyramide] | 8.74 | 7.55 |  |  |
| CCN(CCO)c1cc(-c2ccccc2C)c(N(C)C(=O)C(C)(C)c2cc(C(F)(F)F)cc(C(F)(F)F)c2)cn1 [Example 118, 2-(3,5-Bis-trifluoromethyl-phenyl)-N-{6-[ethyl-(2-hydroxy-ethyl)-amino]-4-o-tolyl-pyridin-3-yl}-N-methyl-isobutyramide] | 8.44 | 8.34 |  |  |
| COc1cc(Cl)cc(C(C)(C)C(=O)N(C)c2cnc(N3C[C@H](O)C[C@H]3CO)cc2-c2ccc(F)cc2C)c1 [Example 31, (2S,4R)-2-(3-Chloro-5-methoxy-phenyl)-N-[4-(4-fluoro-2-methyl-phenyl)-6-(4-hydroxy-2-hydroxymethyl-pyrrolidin-1-yl)-pyridin-3-yl]-N-methyl-isobutyramide] | 9.01 | 8.78 |  |  |
| Cc1cc(F)ccc1-c1cc(N(CCO)CCCO)ncc1N(C)C(=O)C(C)(C)c1cc(C(F)(F)F)cc(C(F)(F)F)c1 [Example 85, 2-(3,5-Bis-trifluoromethyl-phenyl)-N-{4-(4-fluoro-2-methyl-phenyl)-6-[(2-hydroxy-ethyl)-(3-hydroxy-propyl)-amino]-pyridin-3-yl}-N-methyl-isobutyramide] | 8.63 | 8.64 |  |  |
